We go through 2 compounds from US8614064B2, “Methods of diagnosing atherosclerosis by measuring ApoCI” (The Johns Hopkins University, priority 2003, dated 2013).

The subject of one assay is ABC-A1. Nature of the assay: Western measurement of ABC transporter ABCA1 level in AoSMC. The assay is classed as cell-based, human. Conditions: ApoCI-treated cells. The method, then:
(§1) Confluent cultures of AoSMC were preincubated with serum-free medium for 30 min and then treated with ApoCI (2.5 μg/ml medium), HMS (58.8 μg apoA-I/ml medium and 6.2 μg ApoCI/ml medium), and C2-Ceramide (30 μM). At indicated time periods cells were harvested in PBS and pellets lysed in 10 mM HEPES buffer (pH 7.4) 5 mM EDTA, 0.25 mM EGTA, 50 mM NaF, 0.35 M sucrose, 0.1% Nonidet P-40 and protease inhibitors 2 μg/ml aprotinin, 10 μg/ml leupeptin, 5 μg/ml pepstatin, and 1 mM PMSF. Protein concentration was determined using BCA-kit (Pierce, Rockford, Ill.). 100 μg of protein was subjected to electrophoresis in denaturing conditions on 4-15% polyacrylamide gel and electro transferred onto nitrocellulose (BioRad, Rochester, N.Y.). After the transfer, membranes were blocked for 1 h at room temperature in TBS-T/5% milk. Western assay was performed using rabbit caveolin-I (1:1000), SR-BI (1:5000) or goat ABCA1 (1:1000) primary antibody (Santa Cruz Biotechnology, Santa Cruz, Calif.) and horseradish peroxidase-conjugated anti-rabbit or anti-goat antibody (Amersham Pharmacia Biotech, Piscataway, N.J.). Blots were developed using ECL^plus Western blotting detection reagents (Amersham Pharmacia Biotech) and were scanned by laser densitometry. The intensity of the signals were quantified with the ImageGuant program (Molecular Dynamic, Sunnyvale, Calif.).

The subject of the next assay is SR-BI. Nature of the assay: Western measurement of scavenger receptor BI level in AoSMC. It counts as cell-based, human. Conditions: ApoCI-treated cells. The method, then:
as §1

In assay [1] the target is T1, lecithin cholesterol acyl transferase (Homo sapiens, UniProt P04180).
T1 sequence (P04180 25-440): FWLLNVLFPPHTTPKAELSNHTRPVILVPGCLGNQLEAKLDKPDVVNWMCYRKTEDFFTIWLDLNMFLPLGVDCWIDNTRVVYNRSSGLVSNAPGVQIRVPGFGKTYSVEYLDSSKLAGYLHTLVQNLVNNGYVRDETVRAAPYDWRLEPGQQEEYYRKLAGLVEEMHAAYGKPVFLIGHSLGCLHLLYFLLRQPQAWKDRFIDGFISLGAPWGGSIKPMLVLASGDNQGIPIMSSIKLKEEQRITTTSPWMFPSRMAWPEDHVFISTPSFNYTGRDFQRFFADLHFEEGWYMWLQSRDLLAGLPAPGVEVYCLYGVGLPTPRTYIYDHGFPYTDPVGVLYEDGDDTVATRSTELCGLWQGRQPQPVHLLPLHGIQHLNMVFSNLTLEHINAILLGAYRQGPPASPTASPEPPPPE
Conditions: % of that of apoA-I; Soutar et al. 1975; cited from earlier work.

The test system of a further assay is Src kinase. Nature of the assay: Analysis of p53/p56 Lyn (Src) kinase expression in AoSMC. The assay is classed as cell-based, human. Conditions: ApoCI-treated cells. The method, then:
Confluent cultures of AoSMC were incubated with ApoCI (2.5 μg/ml medium), ApoCIII (2.5 μg/ml medium), ApoCI-enriched HDL (1 μg apoA-I/ml medium), or […] (5 μg apoA-I/ml medium). Cells were harvested in PBS at various time intervals and stored frozen in the presence of the protease inhibitor cocktail above. Western analysis for p53/p56 Lyn kinase was performed using primary anti-Lyn p53/p56 antibody (1:300) (Santa Cruz Biotechnology) and chemiluminescence (Amersham Pharmacia Biotech, Piscataway, N.J.).

A further assay addresses T2, acid sphingomyelinase (Homo sapiens, UniProt P17405).
T2 construct: acid sphingomyelinase activity (control: 400 nmol/mg protein; GW4869: 340 nmol/mg protein) in cultured human ASMC; host or cells: cultured human ASMC
T2 sequence (P17405 47-631): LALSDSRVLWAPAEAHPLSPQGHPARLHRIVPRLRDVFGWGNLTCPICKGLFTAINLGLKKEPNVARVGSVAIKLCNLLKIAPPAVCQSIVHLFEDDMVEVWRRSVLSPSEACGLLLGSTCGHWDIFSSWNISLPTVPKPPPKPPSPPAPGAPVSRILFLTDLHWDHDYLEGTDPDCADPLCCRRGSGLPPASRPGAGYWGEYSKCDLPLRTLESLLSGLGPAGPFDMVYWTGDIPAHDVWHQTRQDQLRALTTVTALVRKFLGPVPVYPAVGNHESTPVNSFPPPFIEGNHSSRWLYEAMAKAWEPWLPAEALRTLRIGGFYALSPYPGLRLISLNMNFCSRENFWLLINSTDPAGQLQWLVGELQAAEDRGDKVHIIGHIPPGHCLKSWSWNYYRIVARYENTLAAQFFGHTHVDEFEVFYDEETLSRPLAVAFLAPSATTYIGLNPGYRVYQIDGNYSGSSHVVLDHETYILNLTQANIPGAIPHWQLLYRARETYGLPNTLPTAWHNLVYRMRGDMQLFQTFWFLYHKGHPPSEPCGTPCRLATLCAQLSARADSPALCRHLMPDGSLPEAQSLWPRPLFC
The experiment in a line: Acid sphingomyelinase activity in cultured human ASMC (specificity of GW4869). Conditions: with GW4869; control 400 nmol/mg protein; did not alter. The assay is classed as cell-based.

Regarding “Apolipoprotein C-I (TPDVSSALDKLKEFGNTLEDKARELISRIKQSELSAKMREWFSETFQKVKEKLKIDS; UniProt P02654 27-83, looked up) [ApoCI, 6.6-kDa single-chain plasma protein of 57 amino acids; purified human ApoCI purchased from Academy Bio-Medical Company]”, in the assay with ABC-A1, the “cellular level of the ATP binding cassette (ABC-A1) protein” value was “transiently and significantly decreased”. For the same compound, the “cellular level of the scavenger receptor binding protein (SR-BI)” value in the assay with SR-BI was “transiently and significantly decreased”. Further, the “stimulation of lecithin cholesterol acyl transferase relative to apolipoprotein A-I” value in assay [1] is given as around 80%. For the same compound, in the assay with Src kinase, the “effect on Src kinase” value is given as “stimulated”.

In the case of `O=C(/C=C/c1ccc(/C=C/C(=O)Nc2ccc(C3=NCCN3)cc2)cc1)Nc1ccc(C2=NCCN2)cc1` [GW4869], the acid sphingomyelinase activity on acid sphingomyelinase came out at 340 nmol/mg protein.
